In patent publication US20240216401A1, “COMBINATION THERAPY BY USING AKR1C3-ACTIVATED COMPOUND WITH IMMUNE CHECKPOINT INHIBITOR” (OBI Pharma, Inc., priority 2021, published 2024):
“And” between values parts separate entries of the source, which are not always exact repeats. Equal entries are not always repeated.

Columns and labels:
Type in all cases: in vivo, Mus musculus
HepG2 tumor = assay: Example 1: tumor volume, tumor weight and TGI in HepG2 tumor bearing humanized mice
Description: (§1) Each group contains five mice. The human hepatocellular carcinoma cell line HepG2 were subcutaneously inoculated to the advanced immune deficiency mice. Total of 30 mice were included in this study.
2.2. […] The subcutaneous injection volume was […].
(§2) 3.1. […] The injection was performed using insulin syringe with the dosage of 10 mg/kg (Dosage of injection was changed to 20 mg/kg from Day 15) and injection volume of 10 mL/kg. […] The reference item was administered for G1. The procedure followed the standards of sample administration.
(§3) 3.2. The test item anti-hPD-L1 antibody or reference items were intraperitoneally injected to the mice on Day 8 after the inoculation of tumor cells. The injection was performed using insulin syringe with the dosage of 10 mg/kg (Dosage of injection was changed to 20 mg/kg from Day 15) and injection volume of 10 mL/kg. The test item anti-hPD-L1 was continuously administered on Day 8, 11, 15, 18, 22, 25, 29 and 32 for G4 and G6. The reference item was administered for G1. The procedure followed the standards of sample administration.
(§4) 3.3. […] The injection was performed using insulin syringe with the dosage of 1 mg/kg and injection volume of 5 mL/kg. […] The reference item was administered for G1. The procedure followed the standards of sample administration.
The measurement was performed from the next day of the inoculation. The tumor volumes were measured and recorded twice a week (Mon., Thur.). Tumor volume was calculated by ellipsoid equation according to the records ((major axis×minor axis×minor axis)×(π/6)).
Tumor volumes were used to calculate tumor growth inhibition (TGI) rates according to the following formula: TGI (%)=[1−(Ti−T0)/(Ci−C0)]×100, where Ti and Ci indicate the mean tumor volume in the treatment groups and vehicle group at the end of the experiment (Day 35). Whereas, T0 and C0 indicate the mean tumor volumes in the treatment group and vehicle group at the beginning of the experiment (Day 1).
(§5) Mice were sacrificed by CO2 euthanasia at the end of the study duration, and the connective tissue around tumor was resected. The tumor samples were then removed and weighed. The half tissue was fixed in 10% formaldehyde and then embedded in paraffin; the other half was prepared for the isolation of tumor-infiltrating lymphocytes (TILs).

[1] = Example 1: body weight and mortality of HepG2 tumor bearing humanized mice; conditions: OBI-3424 1 mg/kg IV, antibody 10 mg/kg IP (20 from Day 15)
Description: as §1, §2, §3, §4
The measurement was performed from the next day of the inoculation. The animal body weights were measured and recorded twice per week.

[2] = system: CD8^+ cytotoxic T cells (CTL) in tumor-infiltrating lymphocytes; assay: Example 1: flow cytometry, percentage of CTL cells in TILs
Description: as §5
(§6) The half of mouse tumors were dissected into smaller fragments using scalpels and then digested with a cocktail of collagenase, DNase I, and Hyaluronidase (Collagenase #C5138, DNase I #D5025, Hyaluronidase #H6254, SigmaAldrich) for at least 2 hours.
(§7) Cells were stained with the fluorescently conjugated surface antibodies and incubated for 30 minutes at 4° C., and then resuspended in staining buffer for flow cytometric analysis. Flow cytometry was done using a Navios EX Flow Cytometer (Beckman Coulter). Data were analyzed using the Kaluza Analysis Software (Beckman Coulter).

[3] = system: CD4^+ T helper cells in tumor-infiltrating lymphocytes; assay: Example 1: flow cytometry, percentage of TH cells in TILs; conditions: individual mice
Description: as §5, §6, §7

[4] = system: NK cells in tumor-infiltrating lymphocytes; assay: Example 1: flow cytometry, percentage of NK cells in TILs; conditions: individual mice
Description: as §5, §6, §7

[5] = system: PD-L1^+ cells in tumor-infiltrating lymphocytes; assay: Example 1: flow cytometry, percentage of PD-L1 cells in TILs; conditions: individual animal
Description: as §5, §6, §7

[6] = TILs, flow cytometer, individual mice
[7] = TILs, gate CD45^+CD8^+ cells, individual mice

Substance: anti-hPD-1: Anti-Human PD-1 antibody, Pembrolizumab, Merck & Co., Inc.
- Tumor volume, Mean (HepG2 tumor; D 1, group mean, OBI-3424 1 mg/kg IV, antibody 10 mg/kg IP (20 from Day 15)): 354.80 mm^3
- Tumor volume, Mean (HepG2 tumor; D 4, group mean, OBI-3424 1 mg/kg IV, antibody 10 mg/kg IP (20 from Day 15)): 269.37 mm^3
- Tumor volume, Mean (HepG2 tumor; D 7, group mean, OBI-3424 1 mg/kg IV, antibody 10 mg/kg IP (20 from Day 15)): 301.61 mm^3
- Tumor volume, Mean (HepG2 tumor; D 11, group mean, OBI-3424 1 mg/kg IV, antibody 10 mg/kg IP (20 from Day 15)): 339.50 mm^3
- Tumor volume, Mean (HepG2 tumor; D 14, group mean, OBI-3424 1 mg/kg IV, antibody 10 mg/kg IP (20 from Day 15)): 393.76 mm^3
- Tumor volume, Mean (HepG2 tumor; D 18, group mean, OBI-3424 1 mg/kg IV, antibody 10 mg/kg IP (20 from Day 15)): 735.09 mm^3
- Tumor volume, Mean (HepG2 tumor; D 21, group mean, OBI-3424 1 mg/kg IV, antibody 10 mg/kg IP (20 from Day 15)): 880.07 mm^3
- Tumor volume, Mean (HepG2 tumor; D 25, group mean, OBI-3424 1 mg/kg IV, antibody 10 mg/kg IP (20 from Day 15)): 947.95 mm^3
- Tumor volume, Mean (HepG2 tumor; D 28, group mean, OBI-3424 1 mg/kg IV, antibody 10 mg/kg IP (20 from Day 15)): 1171.03 mm^3
- Tumor volume, Mean (HepG2 tumor; D 32, group mean, OBI-3424 1 mg/kg IV, antibody 10 mg/kg IP (20 from Day 15)): 1366.17 mm^3
- Tumor volume, Mean (HepG2 tumor; D 35, group mean (mean±SEM), OBI-3424 1 mg/kg IV, antibody 10 mg/kg IP (20 from Day 15)): 1613.37±338.07 mm^3 and 1613.37 mm^3
- Tumor weight, Mean (HepG2 tumor; D 35, group mean, OBI-3424 1 mg/kg IV, antibody 10 mg/kg IP (20 from Day 15)): 1266.48 mg
- mean tumor volume compared with vehicle (in words) (HepG2 tumor; Day 35, vs vehicle (G1), Student's t-test): No statistically significant difference
- effect on tumor growth (conclusion in words) (HepG2 tumor; HepG2 humanized mouse model): no effect on tumor growth
- TGI (HepG2 tumor; from mean tumor volumes Day 35 vs Day 1, relative to vehicle, OBI-3424 1 mg/kg IV, antibody 10 mg/kg IP (20 from Day 15)): −9.69%
- Body Weight, Mean ([1]; Day 0, group mean): 22.84 g
- Body Weight, Mean ([1]; Day 1, group mean): 22.47 g
- Body Weight, Mean ([1]; Day 4, group mean): 23.47 g
- Body Weight, Mean ([1]; Day 7, group mean): 23.48 g
- Body Weight, Mean ([1]; Day 11, group mean): 23.90 g
- Body Weight, Mean ([1]; Day 14, group mean): 23.94 g
- Body Weight, Mean ([1]; Day 18, group mean): 24.30 g
- Body Weight, Mean ([1]; Day 21, group mean): 23.59 g
- Body Weight, Mean ([1]; Day 25, group mean): 23.42 g
- Body Weight, Mean ([1]; Day 28, group mean): 22.52 g
- Body Weight, Mean ([1]; Day 32, group mean): 22.55 g
- Body Weight, Mean ([1]; Day 35, group mean): 22.77 g
- CD8^+ cytotoxic T cells (CTL) population in tumors compared with vehicle (in words) ([2]; Example 1, TILs at sacrifice, flow cytometry): not observed
- CD25^+ CTL cells (CD45^+CD8^+ CD25^+) Total % [2, 6]: 0.26% and 0.10% and 0.65% and 0.84% and 0.41%
- CTL cells (CD45^+CD8^+) Total % [2, 6]: 9.30% and 6.22% and 21.30% and 11.17% and 24.91%
- PD-1^+ CTL cells (CD45^+CD8^+ PD-1^+) Total % [2, 6]: 10.83% and 9.53% and 15.71% and 10.88% and 14.41%
- CTL cells (CD45^+CD8^+) CD45^+ Gated % ([2]; TILs, gate CD45^+ cells, individual mice): 36.10% and 34.75% and 75.47% and 53.85% and 55.75%
- CD25^+ CTL cells (CD45^+CD8^+ CD25^+) CTL Gated % [2, 7]: 2.80% and 1.53% and 3.05% and 7.48% and 1.65%
- PD-1^+ CTL cells (CD45^+CD8^+ PD-1^+) CTL Gated % [2, 7]: 89.36% and 84.37% and 66.70% and 66.59% and 57.38%
- CD25^+ CTL cells (CD45^+CD8^+ CD25^+) Cell count ([2]; TILs, individual mice): 0.79 ×10^5 and 0.35 ×10^5 and 0.62 ×10^5 and 1.08 ×10^5 and 0.28 ×10^5
- CTL cells (CD45^+CD8^+) Cell count ([2]; TILs, individual mice): 28.27 ×10^5 and 21.83 ×10^5 and 20.30 ×10^5 and 14.41 ×10^5 and 16.91 ×10^5
- PD-1^+ CTL cells (CD45^+CD8^+ PD-1^+) Cell count ([2]; TILs, individual mice): 32.92 ×10^5 and 33.45 ×10^5 and 14.97 ×10^5 and 14.04 ×10^5 and 9.78 ×10^5
- CD25^+ TH cells (CD45^+CD4^+ CD25^+) Total % ([3]; flow cytometer): 0.71% and 0.67% and 0.82% and 1.28% and 0.45%
- PD-1^+ TH cells (CD45^+CD4^+ PD-1^+) Total % ([3]; flow cytometer): 20.78% and 11.99% and 9.21% and 11.61% and 15.49%
- TH cells (CD45^+CD4^+) Total % ([3]; flow cytometer): 19.18% and 11.07% and 9.76% and 11.17% and 18.23%
- TH cells (CD45^+CD4^+) CD45^+ Gated % ([3]; gate CD45^+ cells): 74.49% and 61.90% and 34.59% and 53.85% and 40.81%
- CD25^+ TH cells (CD45^+CD4^+CD25^+) TH Gated % ([3]; gate CD45^+CD4^+ cells): 3.70% and 6.05% and 8.35% and 11.42% and 2.44%
- PD-1^+ TH cells (CD45^+CD4^+ PD-1^+) TH Gated % ([3]; gate CD45^+CD4^+ cells): 96.11% and 90.08% and 83.23% and 82.55% and 85.27%
- CD25^+ TH cells (CD45^+CD4^+ CD25^+) Cell count [3]: 2.16 ×10^5 and 2.35 ×10^5 and 0.78 ×10^5 and 1.65 ×10^5 and 0.31 ×10^5
- PD-1^+ TH cells (CD45^+CD4^+ PD-1^+) Cell count [3]: 63.17 ×10^5 and 42.08 ×10^5 and 8.78 ×10^5 and 14.98 ×10^5 and 10.52 ×10^5
- TH cells (CD45^+CD4^+) Cell count [3]: 58.31 ×10^5 and 38.86 ×10^5 and 9.30 ×10^5 and 14.41 ×10^5 and 12.38 ×10^5
- CD16^+ NK cells (CD45^+CD56^+ CD16^+) Total % ([4]; flow cytometer): 0.41% and 0.32% (2×) and 0.44% and 0.79%
- NK cells (CD45^+CD56^+) Total % ([4]; flow cytometer): 2.91% and 1.08% and 3.01% and 1.93% and 4.76%
- PD-1^+ NK cells (CD45^+CD56^+PD-1^+) Total % ([4]; flow cytometer): 2.67% and 1.13% and 2.36% and 1.46% and 1.78%
- NK cells (CD45^+CD56^+) CD45^+ Gated % ([4]; gate CD45^+ cells): 12.27% and 6.34% and 12.96% and 9.57% and 12.69%
- CD16^+ NK cells (CD45^+CD56^+ CD16^+) NK Gated % ([4]; gate CD45^+CD56^+ cells): 13.94% and 29.77% and 14.48% and 16.58% and 16.61%
- PD-1^+ NK cells (CD45^+CD56^+PD-1^+) NK Gated % ([4]; gate CD45^+CD56^+ cells): 99.81% and 100.00% and 87.08% and 98.31% and 64.90%
- CD16^+ NK cells (CD45^+CD56^+ CD16^+) Cell count [4]: 1.25 ×10^5 and 1.12 ×10^5 and 0.42 ×10^5 and 0.41 ×10^5 and 0.54 ×10^5
- NK cells (CD45^+CD56^+) Cell count [4]: 8.85 ×10^5 and 3.79 ×10^5 and 2.87 ×10^5 and 2.49 ×10^5 and 3.23 ×10^5
- PD-1^+ NK cells (CD45^+CD56^+PD-1^+) Cell count [4]: 8.12 ×10^5 and 3.97 ×10^5 and 2.25 ×10^5 and 1.88 ×10^5 and 1.21 ×10^5
- CD45^+ cells Cell count (×10^6) [5]: 7.83 ×10^6 and 6.28 ×10^6 and 2.69 ×10^6 and 2.68 ×10^6 and 3.03 ×10^6
- CD45^+ cells Gated % [5]: 41.15% and 30.42% and 47.95% and 36.87% and 63.31%
- CD45^+ cells Total % [5]: 25.75% and 17.89% and 28.22% and 20.74% and 44.68%
- Total PD-L1^+ cells (PD-L1^+) Cell count (×10^5) [5]: 10.55 ×10^5 and 13.65 ×10^5 and 2.38 ×10^5 and 7.80 ×10^5 and 4.22 ×10^5
- Total PD-L1^+ cells (PD-L1^+), Total % [5]: 3.47% and 3.89% and 2.50% and 6.05% and 6.21%
- Total PD-L1^+ cells (PD-L1^+), Total cells Gated % [5]: 6.45% and 7.52% and 3.68% and 7.83% and 6.95%
- Total cells Cell count (×10^6) [5]: 16.37 ×10^6 and 18.15 ×10^6 and 6.47 ×10^6 and 9.97 ×10^6 and 6.06 ×10^6
- Total cells Gated % [5]: 53.84% and 51.71% and 67.88% and 77.26% and 89.23%
- Total cells Total % [5]: 53.84% and 51.71% and 67.88% and 77.26% and 89.23%
